# Reference: the RepoRT retention time repository
# Experiment: Waters ACQUITY UPLC BEH C18, 100 × 2.1 mm, 1.7 µm, 40 °C, 0.3 to 0.4 mL/min, estimated dead time 0.63 min; A: water + 0.1% formic acid; B: methanol + 0.1% formic acid; gradient (min/%B) 0/0.5 0.1/0.5 10/80 10.1/99.5 12/99.5
# Details: stereoisomer not certain
row,LC retention time [min],SMILES
1,6.06,COc1ccc(-c2coc3cc(OC4OC(COC(=O)CC(=O)O)C(O)C(O)C4O)cc(O)c3c2=O)cc1 (stereo unspecified)
2,10.2,CC(C)=CCc1cc(C2Oc3c(ccc(O)c3CC=C(C)C)C(=O)C2O)ccc1O (stereo unspecified)
3,5.33,COc1ccc(C2CC(=O)c3c(O)cc(OC4OC(COC5OC(C)C(O)C(O)C5O)C(O)C(O)C4O)cc3O2)cc1 (stereo unspecified)
4,4.1,O=C(O)CCCCCCC(=O)O
5,4.1,O=C(C=Cc1ccc(O)c(O)c1)c1ccc(OC2OC(CO)C(O)C(O)C2O)c(O)c1O (stereo unspecified)
6,4.57,CC(=O)OCC1OC(Oc2ccc3c(=O)c(-c4ccc(O)cc4)coc3c2)C(O)C(O)C1O (stereo unspecified)
7,10.1,CCCCCCC(O)CC=CCCCCCCCC(=O)O (stereo unspecified)
8,4.6,O=C(C=Cc1ccc(O)c(O)c1)OC1C(O)CC(O)(C(=O)O)CC1O (stereo unspecified)
9,2.46,CC(=O)N1CCCC1C(=O)O (stereo unspecified)
10,8.76,CC(C)=CCc1c(O)cc(O)c2c1OC(c1ccc(O)cc1)CC2=O (stereo unspecified)
11,4.3,COc1cc(C=CC(=O)NC=Cc2ccc(O)cc2)ccc1O
12,9.91,CCCCCCCCCCCCCCCC(=O)OCC(O)COP(=O)([O-])OCC[N+](C)(C)C (stereo unspecified)
13,3.63,COc1c(O)cc2oc(-c3ccc(O)c(O)c3)c(OC3OC(COC4OC(CO)C(O)C(O)C4O)C(O)C(O)C3O)c(=O)c2c1O (stereo unspecified)
14,2.02,CSCC(NC(=O)CCC(N)C(=O)O)C(=O)O (stereo unspecified)
15,3.15,CN1C2CCC1CC(OC(=O)C(O)c1ccccc1)C2 (stereo unspecified)
16,7.01,COc1c(CC=C(C)C)c(O)cc2oc(=O)c(-c3ccc(O)cc3O)cc12
17,8.35,COc1c(CC=C(C)C)c(O)cc2oc(-c3ccc(O)cc3O)cc12
18,3.92,COC(=O)C1CC23CCCN4CCC5(c6ccccc6NC15CC2)C43 (stereo unspecified)
19,4.16,CS(=O)CCCCCCCC#N (stereo unspecified)

# The remaining lines, values behind:
row,SMILES,LC retention time [min]
1,COc1cc(-c2oc3cc(OC4OC(C)C(O)C(O)C4O)cc(O)c3c(=O)c2O)ccc1O (stereo unspecified),3.72
2,C1CCC(C23CC(CC4CCCNC42)C2CCCCN2C3)NC1 (stereo unspecified),2.24
3,COc1cc(-c2oc3cc(O)cc(O)c3c(=O)c2OC2OC(CO)C(O)C(O)C2O)ccc1OC1OC(CO)C(O)C(O)C1O (stereo unspecified),3.23
4,O=c1cc(-c2ccc(O)cc2)oc2cc(OC3OC(CO)C(O)C(O)C3O)c(C3OC(CO)C(O)C(O)C3O)c(O)c12 (stereo unspecified),3.52
5,CCC1C2CC3C4N(C)c5ccccc5C45CC(C2C5O)N3C1O (stereo unspecified),4.13
6,COc1cc(-c2cc(=O)c3c(O)cc(OC4OC(C(=O)O)C(O)C(O)C4O)cc3o2)cc(OC)c1OC1OC(CO)C(O)C(O)C1O (stereo unspecified),4.05
7,O=C(O)C1OC(Oc2cc3oc(-c4ccccc4)cc(=O)c3c(O)c2O)C(O)C(O)C1O (stereo unspecified),4.49
8,COc1cc2c(cc1OC)C(C)=NCC2,2.93
9,COc1cc(C=CC(=O)OC2OC(CO)C(O)C(O)C2O)cc(OC)c1O (stereo unspecified),3.54
10,CCC1CN2CCc3c([nH]c4ccccc34)C2CC1C(=COC)C(=O)OC (stereo unspecified),5.85
11,COc1cc(-c2[o+]c3cc(O)cc(OC4OC(CO)C(O)C(O)C4O)c3cc2OC2OC(CO)C(O)C(O)C2O)cc(OC)c1O (stereo unspecified),2.81
12,CN1C2CCC1CC(OC(=O)C(CO)c1ccccc1)C2 (stereo unspecified),3.59
13,CCOC1OC(=O)c2cc3ccc4c(c3c(-c3ccc5c(c3)OCO5)c21)OCO4 (stereo unspecified),8.82
14,COc1cc(-c2cc(=O)c3c(O)cc(OC4OC(CO)C(O)C(O)C4OC4OC(C)C(O)C(O)C4O)cc3o2)cc(OC)c1O (stereo unspecified),4.36
15,O=C(O)c1cc2c(c3c1c([N+](=O)[O-])cc1ccccc13)OCO2,7.55
16,Cc1c(N)c(=O)n(-c2ccccc2)n1C,2.76
17,O=c1c(OC2OC(CO)C(O)C(O)C2O)c(-c2cc(O)c(O)c(OC3OC(CO)C(O)C(O)C3O)c2)oc2cc(O)cc(O)c12 (stereo unspecified),3.34
18,COc1cc(C2c3cc4c(cc3C(O)C3COC(=O)C23)OCO4)cc(OC)c1OC (stereo unspecified),6.26
19,COC(=O)C1(O)CC23CCCN4CCC5(c6ccc7c(c6NC15CC2)OCO7)C43 (stereo unspecified),3.61

row,SMILES,LC retention time [min]
1,CN1CCCC1c1cccnc1 (stereo unspecified),1.62
2,CC(C)=CCCC(C)(O)C1CCC2(C)C1C(O)CC1C3(C)CCC(O)C(C)(C)C3C(OC3OC(CO)C(O)C(O)C3O)CC12C (stereo unspecified),6.29
3,COc1ccc2cc1Oc1ccc(cc1)CC1=NCCc3cc(OC)c(cc31)Oc1c(OC)c(OC)c([O-])c3c1C(C2)[NH+](C)CC3 (stereo unspecified),3.96
4,O=C1CCC(C(=O)O)N1 (stereo unspecified),1.73
5,O=C(C=Cc1ccc(O)cc1)OCC1OC(Oc2c(-c3ccc(O)cc3)oc3cc(O)cc(O)c3c2=O)C(O)C(O)C1O (stereo unspecified),5.21
6,CC1(C)CC2C3=CCC4C5(C)CCC(O)C(C)(CO)C5CCC4(C)C3(C)CCC2(C)C(O)C1O (stereo unspecified),8.94
7,COc1ccc2cc1Oc1ccc(cc1)CC1=NCCc3cc(OC)c(cc31)Oc1c(OC)c(OC)c(O)c3c1C(C2)N(C)CC3 (stereo unspecified),3.96
8,CC1CCC2(C(=O)O)CCC3(C)C(=CCC4C5(C)CC(O)C(O)C(C)(C)C5CCC43C)C2C1C (stereo unspecified),9.89
9,OCC1OC(Oc2cc3c(O)cc(O)cc3[o+]c2-c2ccc(O)c(O)c2)C(O)C(O)C1O (stereo unspecified),2.91
10,COCC12CN(C)C3C4C(OC)C1C3(C(OC)CC2O)C1CC2(O)C(OC)C(O)C4(OC(C)=O)C1C2OC(=O)c1ccccc1 (stereo unspecified),5.61
11,CC1OC(OC2C(OC3C(OC4CCC5(C)C(CCC6(C)C5CC=C5C7CC(C)(C)CC(O)C7(C)CCC56C)C4(C)CO)OC(C(=O)O)C(O)C3O)OC(CO)C(O)C2O)C(O)C(O)C1O (stereo unspecified),7.09
12,O=c1c(OC2OC(COC3OCC(O)C(O)C3O)C(O)C(O)C2O)c(-c2ccc(O)c(O)c2)oc2cc(O)cc(O)c12 (stereo unspecified),3.7
13,N#CC(OC1OC(COC2OC(CO)C(O)C(O)C2O)C(O)C(O)C1O)c1ccccc1 (stereo unspecified),3.32
14,COc1cc2c(c(OC)c1OC)-c1c(cc(OC)c(OC)c1OC)CC(C)(O)C(C)C2 (stereo unspecified),7.59
15,CC1OC(Oc2cc(O)c3c(=O)c(OC4OC(C)C(O)C(O)C4O)c(-c4ccc(O)c(O)c4)oc3c2)C(O)C(O)C1O (stereo unspecified),3.67
16,CCN1CC2(C)CCC(O)C34C5CC6C(OC)CC(O)(C(CC23)C14)C5C6O (stereo unspecified),2.89
17,C=CCc1ccc(O)c(-c2cc(CC=C)ccc2O)c1,9.21
18,O=c1c(OC2OC(CO)C(O)C(O)C2O)c(-c2ccc(O)cc2)oc2cc(O)cc(O)c12 (stereo unspecified),4.37
